Source: ChEMBL document CHEMBL5143577, “Development of a degrader against oncogenic fusion protein FGFR3-TACC3” (Bioorg Med Chem Lett, 2022)
Activity calls are given as the source filed them. No cut-off for these calls is given here.

Tests used:
RT-4 [1] = test: Sniper activity at FGFR3-TACC3 in human RT4 cells assessed as decrease in FGFR3-TACC3 protein level at 3 uM after 6 hrs; format: cell-based
RT-4 [2] = test: Sniper activity at FGFR3-TACC3 in human RT4 cells assessed as decrease in FGFR3-TACC3 protein level at 3 uM after 6 hrs in presence of siRNA XIAP; format: cell-based
RT-4 [3] = test: Antiproliferative activity against human RT-4 cells expressing FGFR3-TACC3 at 3 uM measured after 72 hrs by WST assay; format: functional, cell-based
RT-4 [4] = test: Sniper activity at FGFR3-TACC3 in human RT4 cells assessed as decrease in FGFR3-TACC3 protein level at 30 uM after 6 hrs; format: cell-based

SMILES	Activity (RT-4 [1])	Activity (RT-4 [2])	Activity (RT-4 [3])	Activity (RT-4 [4])
CN[C@@H](C)C(=O)N[C@H](C(=O)N1C[C@@H](Oc2cccc(OCCOCCOCCOCCOCCNC(=O)c3ccc(-c4nc(CNc5nccc(NCC(C)C)n5)cs4)cc3)c2)CC1C(=O)N[C@@H]1CCCc2ccccc21)C1CCCCC1 (some centres not stated)	Active	–	–	–
CN[C@@H](C)C(=O)N[C@H](C(=O)N1CCC[C@H]1c1nc(C(=O)c2cccc(OCCOCCOCCOCCNC(=O)c3ccc(-c4nc(CNc5nccc(NCC(C)C)n5)cs4)cc3)c2)cs1)C1CCCCC1	Active	–	–	–
CN[C@@H](C)C(=O)N[C@H](C(=O)N1C[C@@H](Oc2cccc(OCCOCCOCCOCCNC(=O)c3ccc(-c4nc(CNc5nccc(NCC(C)C)n5)cs4)cc3)c2)C[C@H]1C(=O)N[C@@H]1CCCc2ccccc21)C1CCCCC1	Active	–	–	–
CN[C@@H](C)C(=O)N[C@H](C(=O)N1CCC[C@H]1c1nc(C(=O)c2cccc(OCCOCCOCCNC(=O)c3ccc(-c4nc(CNc5nccc(NCC(C)C)n5)cs4)cc3)c2)cs1)C1CCCCC1	Active	Active	Active	–
CC(C)CNc1ccnc(NCc2csc(-c3ccc(C(=O)NCCOCCOCCOCCNC(=O)[C@H](CC(C)C)NC(=O)[C@@H](O)[C@H](N)Cc4ccccc4)cc3)n2)n1	–	–	–	Active
